Here are results for 3 molecules from patent US20160223559A1, “TETRAZINE-CONTAINING COMPOUNDS AND SYNTHETIC METHODS THEREOF” (The Regents of the University of California, priority 2015, published 2016).

A short description of series [1]: Storage and solution stability. The format is physicochemical. The note with it: stored at −20° C. for several months.
A short description of series [2]: Solubility in DMF:PBS during kinetic measurement. The format is physicochemical. The note with it: DMF:PBS at DMF concentrations lower than 80%. The protocol:
FIGS. 3A-3B. (E)-3-substituted-6-styryl-s-tetrazine reaction kinetics. FIG. 3A: Reaction scheme of (E)-cyclooct-4-enol and the series of tetrazines for kinetic characterization. Only one isomer is depicted for 15. FIG. 3B: Tetrazine kinetics were determined by reacting 1 mM tetrazine with an excess (10 mM) of (E)-cyclooct-4-enol in 50% DMF, 50% PBS 1×pH 7.4 buffer at 22° C. Second-order rate constants derived from the data are listed, and the corresponding curves for 2b, 2p, and 11 are shown in FIG. 4A. Tetrazine 2p was reacted in 80% DMF, 20% PBS due to its insolubility at lower DMF concentrations.
A NANODROP™ 2000c (Thermo Scientific) equipped with a cuvette reader and a stirrer was used in the kinetic measurements, and the disappearance of the tetrazine peak absorption around 520 nm was measured over time. Tetrazines at 1 mM were reacted with an excess 10 mM (E)-cyclooct-4-enol with the measurements commencing immediately upon (E)-cyclooct-4-enol addition (FIGS. 3A, 4A-4B). Solution conditions were maintained at 1:1 DMF:PBS pH 7.4 buffer (Sigma Life Science), and all the measurements were done at 22° C. room temperature. Tetrazine peak intensity at each time point was adjusted for background by extrapolation, as in the previous section. Tetrazine peak disappearance is shown as points in FIGS. 4A-4B, with the connecting lines resulting from the nonlinear fits made with Prism 6.0c. […]

The test system of series [3] is A33 antigens on live LS174T human colon carcinoma cells. In words: Live-cell imaging of TCO-antibody pretargeted cells. The following applies: 5 μM probe, 30 minutes. The format is cell-based. The protocol:
FIGS 1A-1D. Depicted in FIG. 1A are fluorescence emission spectra for compound 2v (lowest line) and compound 5 (middle line) and 6 (upper line) in PBS; excitation at 480 nm. FIG. 1B: Figure depicts equimolar solutions of compound 6 and 2v under excitation by a handheld UV lamp. FIGS. 1C-1D: Figures depict Live-cell imaging of LS174T cells. FIG. 1C: Cells were incubated (t=1 h) with 200 nM TCO-conjugated A33 antibodies, washed, and then imaged 30 minutes after the addition of 5 μM 2v. FIG. 1D: Cells lacking TCO were treated with 5 μM 2v for 30 minutes. Scale bar=[…] for both FIGS. 1C and 1D.
Cell culture and labeling. LS174T cells were grown in DMEM media supplemented with 10% fetal bovine serum, 1% L-glutamine, 1% penicillin/streptomycin. Cells were incubated in 5.0% carbon dioxide, 95% humidity at 37° C. The cells were grown in a T-75 tissue culture flask and seeded on a Lab-Tek II chamber slide two days prior to the experiment. A33 antibody (R&D Systems, MN) was modified by incubation with 50 equivalents of trans-cyclooctene NHS ester for 2 hours at room temperature. The A33 antibody was washed three times with 0.1M sodium bicarbonate buffer pH 8.3 using a 30 kDa spin filter before adding the antibody to the cells at a final concentration of 200 nM for 1 hour.
Image acquisition. […]

Series [4] in a line: Fluorescence assays: fluorogenic turn-on reaction with dienophiles. The format is physicochemical. The following applies: PBS pH 7.4, excitation at 480 nm. The protocol:
All compounds were purified by HPLC and verified by LC-MS prior to quantitative activation experiments. Stock solutions in methanol were diluted into 1.5 mL of the appropriate solvent in a 1 cm×1 cm quartz cuvette. Measurements of solvent and pre-activation emission spectra for baseline values were made in at least triplicate, prior to addition of trans-cyclooctenol or cyclopropene 4 to initiate the fluorogenic reaction. 3-fold additional excess of trans-cyclooctenol and cyclopropene 4 were added for each fluorogenic reaction. Activation ratios were calculated from the peak emission intensity of the reaction product and the corresponding baseline intensity, and all the intensity data was background subtracted. Integration of the area under the emission intensity curves was used to validate the activation ratios.
Fluorescence emission of 2v, 5, 6 are depicted in FIG. 1A. All three compounds were dissolved in 2 μM phosphate-buffered saline (PBS) at pH 7.4. FIG. 5A depicts fluorescence emission of 2v in 2 μM phosphate-buffered saline (PBS) at pH 7.4. FIG. 5B depicts fluorescence emission of 2w, 7, 8. All three compounds were dissolved in 2 μM EtOH solution. […] FIG. 5C depicts fluorescence emission of 2w in 2 μM EtOH solution. FIG. 5D depicts fluorescence emission of 2x, 9, 10. […] FIG. 5E depicts fluorescence emission of 2x in 2 μM EtOH solution.

In the case of `Cc1nnc(CCOS(C)(=O)=O)nn1` [Cmpd 1a], in series [1], the storage stability result was “without noticeable decomposition”.
With `C(=C\c1nnc(/C=C/c2ccccc2)nn1)/c1ccccc1` [Cmpd 2p], the solubility result in series [2] is reported as “insolubility”.
Consider `Cc1nnc(/C=C/c2ccc(C(=O)O)c(-c3c4cc(F)c(=O)cc-4oc4cc(O)c(F)cc34)c2)nn1` [Cmpd 2v], for which, in series [3] (cells lacking targeted dienophile), the background staining result is reported as “negligible background staining”. For the same molecule, the “confocal imaging of targeted dienophiles” value in series [3] (cells pretargeted with 200 nM TCO-conjugated A33 antibodies) is “readily revealed the location of targeted dienophiles”. Besides, the entries for the “increase in fluorescence intensity (turn-on)” value in series [4] (after reaction with a TCO) and in series [4] (after reaction with a cyclopropene) were 400 fold and 135 fold, respectively.
